Literature values as cited in PMC7518156 (PeerJ, 2020).
Read-outs that look alike come from different tables or passages of the source.

Details: ref Scheffler et al., 2011, cited from earlier work; for half-life (t1/2): Lu et al., 2006
[1] = oral administration, cancer patients
[2] = oral administration, healthy subjects

| Compound | half-life (t1/2) (cancer patients) | half-life (t1/2) (healthy patients) | F [1] | Tmax [1] | mean bioavailability (F) [2] | time to reach maximum concentration (tmax) [2] |
| --- | --- | --- | --- | --- | --- | --- |
| C#Cc1cccc(Nc2ncnc3cc(OCCOC)c(OCCOC)cc23)c1 [ERL, Erlotinib] | up to 40.9 h | about 24.4 h | 76% | 3 h | 59% | 1.4 h |
| COc1cc2ncnc(Nc3ccc(F)c(Cl)c3)c2cc1OCCCN1CCOCC1 [GEF, Gefitinib] | ~48 h | about 41 h | – | about 7 h | – | 3 h |
